Results taken from US20060148732A1, “Inhibition of NF-kappaB by triterpene compositions” (priority 2000, published 2006).

Tests used:
Jurkat cells = test: Mitochondrial membrane potential (DiOC6); assay type: cell-based, human; conditions: 2 μg/ml
Description: Measurement of mitochondrial membrane potential (Δψm). Mitochondrial Δψm was measured as described by Zamzami, et al., 1995. After treatment with F094, avicin D, or avicin G (2 μg/ml) at 37° C, Jurkat cells were incubated with 80 nM of DiOC6 for 15 minutes at room temperature. They were then analyzed on a cytofluorometer (Facscalibar, excitation: 488 nm and emission: 552 nm).

[1] = system: caspase-3 in Jurkat cells; test: Assay for caspase-3 protease; assay type: cell-based, human; conditions: for start of caspase 3 activation: post treatment
Description: Caspase-3 activity was measured as described earlier (Enari et al., 1995) with some modifications. Briefly, Jurkat cells (1×10^6/ml) were treated with F035, D1 & G1 for different lengths of time. Cytosolic extracts were prepared by repeated freeze thawing in 300 μl of extraction buffer (12.5 mM Tris, pH 7.0, 1 mM DTT, 0.125 mM EDTA, 5% glycerol, 1 μM PMSF, 1 μg/ml leupeptin, 1 μg/ml pepstatin and 1 μg/ml aprotinin). Cell lystates were diluted 1:2 with ICE buffer (50 mM Tris, pH 7.0, 0.5 mM EDTA, 4 mM DTT and 20% glycerol) and incubated with 20 μM of a caspase 3 substrate (acetyl-Asp-Glu-Val-Asp-aminomethylcoumarin) at 37° C. Caspase-3 activity was monitored by the production of fluorescent aminomethylcoumarin, which was measured at excitation 355 nm, emission 460 nm using Fluoroscan II (Labsystems, Helsinki, Finland).
Assay for Caspase-3 Protease. Caspase-3 activity was measured as described earlier (Martin et al, 1995) with some modifications. Briefly, Jurkat cells (1×10^6) were treated with F094, avicin D, or avicin G (2 μg/ml) at 37° C. Cytosolic extracts were prepared by repeated freeze thawing of the cells in 300 μl of an extraction buffer (12.5 mM Tris, pH 7.0, 1 mM DTT, 0.125 mM EDTA, 5% glycerol, 1 μM PMSF, 1 μg/ml leupeptin, 1 μg/ml pepstatin, and 1 μg/ml aprotinin). Cell lysates were diluted 1:2 with an ICE buffer (50 mM Tris, pH 7.0, 0.5 mM EDTA, 4 mM DTT, and 20% glycerol) and incubated with 20 μM of a caspase-3 substrate (acetyl-Asp-Glu-Val-Asp-aminomethylcoumarin) (Calbiochem, La Jolla, Calif.) at 37° C. Caspase-3 activity was monitored by the production of flourescent aminomethylcoumarin that was measured at excitation 355 nm and emission 460 nm, using Fluoroscan II (Labsystems, Helsinki, Finland).

AKT in Jurkat cells = test: Western blot of phosphorylated and total AKT; assay type: cell-based, human; conditions: 2 μg/ml (F035 printed '2 ml'), 15 hr
Description: The effect of F035 on phosphorylation of AKT was analyzed as follows. Jurkat cells (5×10^6) were serum starved and exposed to F035 for 15 h and 2 h with wortmannin at 37° C. The cells were either induced with cd3XL (cd3 crosslink) or left uninduced for 10 min at 37° C. and lysed in AKT lysis buffer and the proteins were resolved on 8% SDS-PAGE gels and analyzed by western-ECL using phospho-specific AKT (Ser 473; New England Biolabs) and total AKT antibody. An assay of the effect of F035 on p70S6 kinase can be carried out similarly, but using a Phosphoplus p70S6 kinase antibody kit (New England Biolabs) for analysis of p70S6 kinase (Ser 411, thr421/ser424) phosphorylation. […] There was, however, no change in the expression of total AKT.
The expression of total and phosphorylated forms of AKT was determined by western blot analysis. Jurkat cells cultured in medium containing 0.5% FBS were treated with F035 and pure extracts D1 and G1 (2.0 μg/ml) for 15 h at 37° C. The cells were lysed in AKT Iysis buffer (20 mM Tris-HCl, 150 mM NaCI, 1 mM EDTA, 1 mM EGTA, 1% Triton X-100, 2.5 mM sodium pyrophosphate, 1 mM 8-glycerol phosphate, 1 mM Na3VO4, […], 1 mM PMSF pH 7.5). Cellular protein (40 μg) was resolved on 8% SDS-polyacrylamide gel and electrotransferred onto nitrocellulose membrane. Membranes were probed first with phosphospecific AKT (Ser 473) or AKT antibody followed by goat anti rabbit antibody conjugated to horseradish peroxidase. Proteins were detected by chemiluminescence (ECL, Amersham, Arlington Heights, Ill.).

[2] = system: cytochrome c in Jurkat cells; test: Cytochrome c release from mitochondria (western blot); assay type: cell-based, human; conditions: 2 μg/ml
Description: Release of cytochrome c from mitochondria in response to treatment with F035 was detected by western blotting. Jurkat cells (10 ×10^6) were treated with 2 μg/ml of F035 for 4 and 6 h at 37° C. Cell pellets were washed in sucrose buffer (0.25M sucrose, 30 mM Tris, pH 7.7, 1 mM EDTA). To the cell pellets added 20 μl of sucrose buffer containing 1 μM PMSF, 1 μg/ml leupeptin, 1 μg/ml pepstatin and 1 μg/ml aprotinin. Cells were disrupted by douncing 120 times in a 0.3 ml Kontes douncer with a B pestle (Kontes Glass company). Cellular protein (60 μg) was resolved on a 15% SDS-polyacrylamide gel and electrotransferred onto a nitrocellulose membrane. The membrane was probed first with monoclonal anti-cytochrome c antibody (PharMingen) and then with anti-mouse antibody conjugated to horse radish peroxidase (HRPO). Protein bands were detected by chemiluminescence (ECL, Amersham).
Detection of Cytochrome c Release from Mitochondria. Release of cytochrome c from mitochondria was detected by Western blot analysis. Jurkat cells (1×10^7) were treated with F094, avicin D, or avicin G (2 μg/ml) at 37° C. After washing the cell pellets in sucrose buffer (0.25 M sucrose, 30 mM Tris, pH 7.7, 1 mM EDTA), they were resuspended in 20 μl of sucrose buffer containing 1 μM PMSF, 1 μg/ml leupeptin, 1 μg/ml pepstatin, and 1 μg/ml aprotinin. Cells were disrupted by douncing 120 times in a 0.3 ml Kontes douncer (Kontes Glass Company, Vineland, N.J.) with a B pestle. Cellular protein (50 μg) was resolved on a 15% SDS-polyacrylamide gel and electrotransferred onto a nitrocellulose membrane. The membrane was probed with monoclonal anti-cytochrome c antibody (Pharmingen, San Diego, Calif.) followed with anti-mouse antibody conjugated to horseradish peroxidase (HRPO). Protein bands were detected by chemiluminescence (ECL, Amersham).

[3] = Biological assays of purified compounds (not specified)

Structure (SMILES)	mitochondrial membrane potential (Δψm) (Jurkat cells; 16 hours)	mitochondrial membrane potential (Δψm) (Jurkat cells; up to 8 hours)	start of caspase 3 activation [1] [h]	AKT phosphorylation (AKT in Jurkat cells)	total AKT protein (AKT in Jurkat cells)	increase in cytosolic cytochrome c ([2]; 30 minutes post-treatment) [fold]	increase in cytosolic cytochrome c ([2]; 4 hours post-treatment) [fold]	biological activity relative to other compounds [3]	time at which activation of caspase-3 is detectable ([1]; 2 μg/ml) [h]
C=C[C@](C)(O)CC/C=C(\CO)C(=O)O[C@H]1[C@H](O)[C@@H](O)[C@H](O[C@@](C)(C=C)CC/C=C(\CO)C(=O)O[C@H]2C[C@]3(C(=O)O[C@@H]4O[C@H](CO)[C@@H](O)[C@H](O)[C@H]4O[C@@H]4O[C@@H](C)[C@H](O[C@@H]5O[C@@H](CO)[C@H](O)[C@H]5O)[C@@H](O[C@@H]5O[C@H](CO)[C@@H](O)[C@H](O)[C@H]5O)[C@H]4O)[C@H](O)C[C@]4(C)C(=CC[C@@H]5[C@@]6(C)CC[C@H](O[C@@H]7O[C@H](CO[C@@H]8O[C@H](C)[C@H](O)[C@H](O)[C@H]8O[C@@H]8OC[C@@H](O)[C@H](O)[C@H]8O)[C@@H](O)[C@H](O)[C@H]7NC(C)=O)C(C)(C)[C@@H]6CC[C@]54C)[C@@H]3CC2(C)C)O[C@@H]1C [Fraction D1]	significant drop	did not produce any significant changes	4	inhibited AKT phosphorylation	inhibited	1.5	3	considerable biological activity	
C=C[C@](C)(O)CC/C=C(\C)C(=O)O[C@H]1[C@H](O)[C@@H](O)[C@H](O[C@@](C)(C=C)CC/C=C(\CO)C(=O)O[C@H]2C[C@]3(C(=O)O[C@@H]4O[C@H](CO)[C@@H](O)[C@H](O)[C@H]4O[C@@H]4O[C@@H](C)[C@H](O[C@@H]5O[C@@H](CO)[C@H](O)[C@H]5O)[C@@H](O[C@@H]5O[C@H](CO)[C@@H](O)[C@H](O)[C@H]5O)[C@H]4O)[C@H](O)C[C@]4(C)C(=CC[C@@H]5[C@@]6(C)CC[C@H](O[C@@H]7O[C@H](CO[C@@H]8O[C@H](C)[C@H](O)[C@H](O)[C@H]8O[C@@H]8OC[C@@H](O)[C@H](O)[C@H]8O)[C@@H](O)[C@H](O)[C@H]7NC(C)=O)C(C)(C)[C@@H]6CC[C@]54C)[C@@H]3CC2(C)C)O[C@@H]1C [Fraction G1]	significant drop	did not produce any significant changes	4	inhibited AKT phosphorylation	inhibited	3.5	8.4	more biologically active than D1	2 to 4
